Earlier results on one compound are cited in paper PMC8468039, “Development of New Meridianin/Leucettine-Derived Hybrid Small Molecules as Nanomolar Multi-Kinase Inhibitors with Antitumor Activity” (Biomedicines, 2021).

Common to all, as to conditions: cited from earlier work
One series relates to DYRK-1A. On the set-up: method as in PMID 21615147, PMID 19879673, PMID 22998443.
A further series relates to CLK-3. On the set-up: method as in PMID 8383730, PMID 21615147, PMID 19879673, PMID 22998443.
The next series deals with CLK-1. Also on record: method as in PMID 21615147, PMID 19879673, PMID 22998443.
Another series relates to DYRK-2. Also on record: method as in PMID 21615147, PMID 19879673, PMID 22998443.

Each structure is given as a SMILES string.

The term IC50 denotes the concentration at which inhibition is half-maximal. Consider `CN1C(=O)/C(=C/c2ccc3c(c2)OCO3)N=C1N` [leucettamine B, Leucettamine B], for which the half-inhibitory concentration (IC50) in the series on DYRK-1A was 2800 nM; in the series on CLK-3, 6.4 µM; with CLK-1, 400 nM; in the series on DYRK-2 it was 1500 nM.
